Target: T1, HSL (Rattus norvegicus, UniProt P15304)
T1 construct: The partially purified HSL can be stored at −70° C. for 4 to 6 weeks; from tissue; host or cells: rat epididymal fat cells (male Wistar rats)
T1 sequence (P15304 1-768 isoform P15304-2): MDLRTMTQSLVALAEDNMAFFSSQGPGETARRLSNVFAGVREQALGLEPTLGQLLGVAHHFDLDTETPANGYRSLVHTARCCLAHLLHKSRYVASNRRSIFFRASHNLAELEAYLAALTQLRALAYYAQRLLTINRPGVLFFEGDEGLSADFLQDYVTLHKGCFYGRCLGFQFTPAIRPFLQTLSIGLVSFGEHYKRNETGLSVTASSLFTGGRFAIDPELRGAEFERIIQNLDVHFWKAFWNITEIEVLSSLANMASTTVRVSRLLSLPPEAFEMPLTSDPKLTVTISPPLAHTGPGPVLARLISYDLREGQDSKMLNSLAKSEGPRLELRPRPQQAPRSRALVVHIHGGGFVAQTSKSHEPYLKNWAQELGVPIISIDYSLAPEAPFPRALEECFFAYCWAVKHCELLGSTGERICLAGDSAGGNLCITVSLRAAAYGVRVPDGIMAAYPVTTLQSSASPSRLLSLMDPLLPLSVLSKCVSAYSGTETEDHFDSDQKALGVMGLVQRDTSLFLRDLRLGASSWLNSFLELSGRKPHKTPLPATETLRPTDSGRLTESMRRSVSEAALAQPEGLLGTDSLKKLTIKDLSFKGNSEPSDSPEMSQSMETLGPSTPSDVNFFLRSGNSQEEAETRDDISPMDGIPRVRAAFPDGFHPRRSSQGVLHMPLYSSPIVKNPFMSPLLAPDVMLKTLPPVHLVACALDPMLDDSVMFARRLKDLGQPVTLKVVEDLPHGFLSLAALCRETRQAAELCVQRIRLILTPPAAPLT
Assay: Direct NAG assay (released NBD-FA, TLC/fluorimetry)
Format: biochemical
Conditions: for Absorption change, Released NBD-FA, 550 nm: 60 min, NAG 0.05 mg/ml
Experimental: Isolated rat fat cells are obtained from epididymal fatty tissue from untreated male rats (Wistar, 220-250 g) by collagenase treatment according to published processes. The fat cells from 10 rats are washed three times by flotation with 50 ml each of homogenization buffer ([…], pH 7.4, 0.25 M sucrose, 1 mM ethylenediamine-N,N,N′,N′-tetraacetic acid (EDTA), 1 mM dithiothreitol (DTT), 10 μg/ml of leupeptin, 10 μg/ml of antipain, 20 μg/ml of pepstatin) and finally taken up in 10 ml of homogenization buffer. The fat cells are homogenized in a Teflon-in-glass homogenizer (Braun-Melsungen) by 10 strokes at 1500 rpm and 15° C. The homogenizate is centrifuged (Sorvall SM24 tubes, 5000 rpm, 10 min, 4° C.). The […] between the overlying fatty layer and the pellet is removed and the centrifugation is repeated. The […] resulting from this is centrifuged again (Sorvall SM24 tubes, 20,000 rpm, 45 min, 4° C.). […] After incubation for 60 min at 4° C. (shake at intervals of 15 min), the batch is centrifuged (Sorvall SM24 tubes, 3000 rpm, 10 min, 4° C.). The supernatant is brought to pH 5.2 by addition of glacial acetic acid and incubated at 4° C. for 30 min. The precipitates are collected by centrifugation (Sorvall SS34, 12,000 rpm, 10 min, 4° C.) and suspended in 2.5 ml of 20 mM TRIS/HCl, pH 7.0, 1 mM EDTA, 65 mM NaCl, 13% sucrose, 1 mM DTT, 10 μg/ml of leupeptin/pepstatin/antipain. The suspension is dialyzed overnight at 4° C. against 25 mM TRIS/HCl, pH 7.4, 50% glycerol, 1 mM DTT, and 10 μg/ml of leupeptin, pepstatin, and antipain and then applied to a hydroxylapatite column (0.1 g per 1 ml of suspension, equilibrated with 10 mM potassium phosphate, pH 7.0, 30% glycerol, 1 mM DTT). The column is washed with four volumes of equilibration buffer at a flow rate of 20 to 30 ml/h. The HSL is eluted with a volume of equilibration buffer which contains 0.5 M potassium phosphate, then dialyzed (see above) and concentrated 5 to 10 times by ultrafiltration (Amicon Diaflo PM 10 filter) at 4° C. The partially purified HSL can be stored at −70° C. for 4 to 6 weeks.
6 mg of phosphatidylcholine and 6 mg of phosphatidylinositol are dissolved in 1 ml of chloroform each. 10 mg of NAG are dissolved in 1 ml of chloroform. Two parts of phosphatidylinositol solution (e.g., 83.5 μl) and one part of phosphatidylcholine solution (e.g., 41.5 μl) and 100 μl of NAG solution are pipetted together into plastic scintillation containers (final concentration in the test: 0.0375 mg of phospholipid/ml; 0.05 mg/NAG/ml). The chloroform (225 μl total volume) is completely removed by overblowing with a stream of N2. The dried substrate can be stored at 4° C. for up to three days. For the preparation of the phospholipid vesicles/micelles having intercalated NAG (on the test day), the dried substrate is taken up in 20 ml of assay buffer (25 mM TRIS/HCl, pH 7.4; 150 mM NaCl) and two ultrasonic treatments with an ultrasonic probe (Branson Sonifier type 11, standard microtip): 1st treatment setting 2, 2×1 min, in between in each case 1 min on ice; 2nd treatment setting 4, 2×1 min, in between in each case 1 min on ice. During this procedure, the color of the substrate solution changed from yellow (extinction maximum 481 nm) to red (extinction maximum 550 nm) due to intercalation of NAG between the phospholipid molecules of the vesicles/micelles. Before use as a substrate (within the next 2 h), the solution is additionally incubated on ice for 15 min.
Altematively to the measurement of the extinction change of the substrate solution, the products of the HSL reaction are investigated by phase separation/thin-layer chromatography. For this, the incubation batch (200 μl total volume, see indirect NAG assay) is mixed in 2 ml Eppendorf vessels with 1.3 ml of methanol/chloroform/heptane (10:9:7) and then with 0.4 ml of 0.1 M NaOH. After intensive mixing (10 sec), the phase separation is initiated by centrifugation (800×g, 20 min, room temperature). […]

**Q.** Which IC50 does the source give for `O=C(CCCCCCCCCCCNc1ccc([N+](=O)[O-])c2nonc12)OCC(O)CO` (racemic) [Compound 3] here?
**A.** 1020 ± 250 nM

**Q.** For `O=C(CCCCCCCCCCCNc1ccc([N+](=O)[O-])c2nonc12)OCC(O)CO` (stereo not shown) [Compound (3)], which “Absorption change, Released NBD-FA, 550 nm” value (“Absorption change” below) (HSL 1 μg) is on record?
**A.** 17 ± 2 arb. units

**Q.** What about the “Absorption change” value (HSL 2 μg) of the same molecule?
**A.** 44 ± 5 arb. units

**Q.** And the “Absorption change” value (HSL 5 μg)?
**A.** 103 ± 11 arb. units

**Q.** What about the “Absorption change” value (HSL 7.5 μg) of the same molecule?
**A.** 157 ± 21 arb. units

**Q.** And the “Absorption change” value (HSL 10 μg)?
**A.** 215 ± 24 arb. units

**Q.** What about the “Absorption change” value (HSL 15 μg) of the same molecule?
**A.** 320 ± 29 arb. units

**Q.** And the “Absorption change” value (HSL 20 μg)?
**A.** 432 ± 53 arb. units

**Q.** What about the “Absorption change” value (HSL 25 μg) of the same molecule?
**A.** 544 ± 61 arb. units

**Q.** And the “Absorption change” value (HSL 30 μg)?
**A.** 616 ± 56 arb. units

**Q.** And the “Absorption change” value (HSL 40 μg)?
**A.** 693 ± 67 arb. units

**Q.** And the “Absorption change” value (HSL 60 μg)?
**A.** 733 ± 80 arb. units

**Q.** And the “Absorption change” value (HSL 80 μg)?
**A.** 746 ± 98 arb. units
